Consider 6 compounds from patent US5527804A, “4-carbamoyloxy-piperidine-1-carboxylic acid esters: inhibitors or cholesterol absorption” (American Home Products Corporation, priority 1994, dated 1996).

Experiment [1] has as its system absorption of 14C-cholesterol. Briefly: In vivo cholesterol absorption, serum radioactivity after oral [4-14C] cholesterol. The settings on record: normal rat, 6 hr, vs control. The arrangement: species or system normal rats. On the procedure: In Vivo Assay: The in vivo cholesterol absorption studies were conducted in normal rats by oral administration of the compound being tested in propylene glycol and olive oil followed by oral administration of [4-^14 C] cholesterol in propylene glycol and olive oil, otherwise following the procedure of Cayen et al., J. Lipid Res. 20, 162 (1979). The serum radioactivity was measured at six hours after dosing. The results of this study are reported in Table I as percent decrease compared to control.

Experiment [2] addresses T1, cholesterol esterase (EC 3.1.1.13), CEH (Bos taurus, UniProt P30122).
T1 construct: purchased Sigma Company, St. Louis, Mo; C-1892; host or cells: bovine pancreas
T1 sequence (P30122 19-597): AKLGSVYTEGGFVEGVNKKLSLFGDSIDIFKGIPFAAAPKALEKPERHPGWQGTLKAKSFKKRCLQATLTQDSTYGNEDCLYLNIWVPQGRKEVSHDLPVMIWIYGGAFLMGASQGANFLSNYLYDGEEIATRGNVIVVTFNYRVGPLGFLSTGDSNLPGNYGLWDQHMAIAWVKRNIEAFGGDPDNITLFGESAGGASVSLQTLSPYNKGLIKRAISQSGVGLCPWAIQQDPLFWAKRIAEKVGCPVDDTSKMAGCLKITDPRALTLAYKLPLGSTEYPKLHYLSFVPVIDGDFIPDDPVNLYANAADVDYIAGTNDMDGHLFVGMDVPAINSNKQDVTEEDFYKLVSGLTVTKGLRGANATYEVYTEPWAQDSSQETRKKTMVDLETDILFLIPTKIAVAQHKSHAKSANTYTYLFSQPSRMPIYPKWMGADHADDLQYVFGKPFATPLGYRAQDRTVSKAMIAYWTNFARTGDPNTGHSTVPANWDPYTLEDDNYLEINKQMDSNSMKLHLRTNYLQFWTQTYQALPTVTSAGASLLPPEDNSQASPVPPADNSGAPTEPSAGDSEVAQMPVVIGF
Nature of the experiment: In vitro inhibition of cholesteryl ester formation by cholesterol esterase (CEH). The format is biochemical. The method, then: In Vitro Assay: The ability of the compounds of this invention to inhibit the formation of cholesteryl esters and thereby interfere with and prevent assimilation of cholesterol into the lymphatic system and ultimately the blood stream was established by incubating the compounds at 37° C. with a mixture of cholesterol and oleic acid in the presence of buffered cholesterol esterase [(EC 3.1.1.13) Sigma Company, St. Louis, Mo., U.S.A., No. C-1892, from bovine pancreas] and measuring the amount of ester formed, according to the procedure of Field, J. of Lipid Research, 25, 389 (1984).

The mark [3] stands for this setting: IC25 instead of IC50; 37° C.; cholesterol + oleic acid; bovine pancreas enzyme.
Where [4] appears, read: 37° C.; cholesterol + oleic acid; bovine pancreas enzyme; read-out: In Vitro Results IC50 CEH.

The structures appear in SMILES notation. Read-outs that look alike come from different tables or passages of the source.

In the case of `CCCCCCNC(=O)OC1CCN(C(=O)OCCCCCCNC(=O)Oc2ccc(Oc3ccccc3)cc2)CC1` [Example 6, 4-(Hexylcarbamoyloxy)-piperidine-1-carboxylic acid 6-[(4-phenoxy-phenyl)-oxycarbonylamino]-hexyl ester], in experiment [1] (3 mg/kg), the “Effect on Absorption of 14C-Chol, % Decrease” value (“Effect … % Decrease” for short) came out at 49%. The IC50 (as a rule, the midpoint of a concentration-inhibition curve) in experiment [2] (read-out: In Vitro Results IC50 CEH; 37° C.; cholesterol + oleic acid; bovine pancreas enzyme) came out at 1100 nM.

On to `O=C(NCCCCCCOC(=O)N1CCC(OC(=O)N2CCC3(CCCC3)CC2)CC1)Oc1ccc(Oc2ccccc2)cc1` [Example 7, 8-Aza-spiro[4.5]decane-8-carboxylic acid 1-{6-[(4-phenoxy-phenyl)-oxycarbonylamino]-hexyloxycarbonyl}-piperidin-4-yl ester], for which the “Effect … % Decrease” value in experiment [1] (10 mg/kg) is recorded as 50%. For the same compound, in experiment [2] (setting [3]), the IC25 – broadly, the point of the concentration-response curve where the effect stands at 25% – turned out to be 200 nM.

As for `CCCCCCCCCCNC(=O)OC1CCN(C(=O)OCCCCCCNC(=O)Oc2ccc(Oc3ccccc3)cc2)CC1` [Example 8, 4-(Decylcarbamoyloxy)-piperidine-1-carboxylic acid 6-[(4-phenoxy-phenyl)-oxycarbonylamino]-hexyl ester], the “Effect … % Decrease” value in experiment [1] (10 mg/kg) was found to be 43%. The IC50 in experiment [2] (setting [4]) turned out to be 3000 nM.

As for `O=C(NCCCCCCOC(=O)N1CCC(OC(=O)NC2CCCCC2)CC1)Oc1ccc(Oc2ccccc2)cc1` [Example 9, 4-(Cyclohexylcarbamoyloxy)-piperidine-1-carboxylic acid 6-[(4-phenoxy-phenyl)-oxycarbonylamino]-hexyl ester], in experiment [1] (10 mg/kg), the “Effect … % Decrease” value was 46%. Further, the IC25 in experiment [2] (setting [3]) was 300 nM.

Take `O=C(NCCCCCCOC(=O)N1CCC(OC(=O)NCCCCc2ccccc2)CC1)Oc1ccc(Oc2ccccc2)cc1` [Example 10, 4-(4-Phenyl-butyl-carbamoyloxy)-piperidine-1-carboxylic acid 6-[(4-phenoxy-phenyl)-oxycarbonylamino]-hexyl ester]: the “Effect … % Decrease” value in experiment [1] (10 mg/kg) worked out at 61%. The IC25 in experiment [2] (setting [3]) came out at 300 nM.

Take `O=C(NCCCCCCOC(=O)N1CCC(OC(=O)N2CCCCC2)CC1)Oc1ccc(Oc2ccccc2)cc1` [Example 11, 4-(Piperidine-1-carbonyloxy)-piperidine-1-carboxylic acid 6-[(4-phenoxy-phenyl)oxycarbonylamino]-hexyl ester]: the “Effect … % Decrease” value in experiment [1] (10 mg/kg) turned out to be 81%. The IC50 in experiment [2] (setting [4]) was determined as 5900 nM.
